Data from patent US20230365558A1, “TETRAHYDROISOQUINOLINE DERIVATIVE AND USE THEREOF” (MEDSHINE DISCOVERY INC., priority 2020, published 2023).
Read-outs that look alike come from different tables or passages of the source.

Assays:
[1] = tested on: Z-138 non-Hodgkin's lymphoma cells; assay: In vitro anti-proliferation assay of Z-138 cells (CellTiter-Glo, 6 days); type: cell-based, human; settings: read-out: IC50 (nM), in vitro anti-proliferative activity on Z-138 tumor cells
Protocol: The plate was incubated at 37° C., CO2 and 100% relative humidity for 6 days. Samples were processed using Promega CellTiter-Glo Luminescent Cell Viability Assay Kit (Promega-G7571) standard method, and the luminescent signal was detected on a TECAN Spark®10M plate reader. Raw data were used to calculate the inhibition rate of the test compounds using the following equation: […]
(§1) The inhibition rates were imported into Excel separately to calculate the inhibition rates of compounds at different concentrations, and then XLfit software was used to plot inhibition curves and calculate relevant parameters, including minimum inhibition rate, maximum inhibition rate and IC50.

PRMT5 enzyme = PRMT5 enzyme (Homo sapiens (Human), UniProt O14744); assay: PRMT5 enzyme inhibitory activity assay (LANCE Ultra TR-FRET); type: biochemical
Protocol: Experimental objective: To test the inhibitory effect of compounds on PRMT5 enzyme activity
Experimental materials: PRMT5 enzyme
The plate was incubated at 25° C. for 30 min, then added with substrate, and reacted at 25° C. for 90 min. After 90 min, the detection reagent was added to the 384-well plate using PerkinElmer LANCE Ultra TR-FRET standard method to combine with the enzyme-substrate reaction product. […] Raw data were used to calculate the inhibition rate of the test compounds using the following equation: […]
as §1

[2] = Pharmacokinetic evaluation in CD-1 mice; settings: CD-1 mice
Protocol: Experimental objective: To study the pharmacokinetic parameters of the compounds in CD-1 mice
Animal experimental design: Male CD-1 mice (28.08 to 29.01 g, 6 to 7 weeks old), purchased from Shanghai Family Planning Research Institute, n=2/group, 4 mice in total; blood collection time points (h): 0.083 (intravenous injection only), 0.25 (intragastric administration only), 0.5, 1, 2, 4, 8, 10 and 24; compound dose by tail vein injection: 1 mg/kg; single dose by intragastric administration: 5 mg/kg; intravenous and intragastric administration vehicles: 20% N,N-dimethylacetamide aqueous solution, 20% hydroxypropyl-β-cyclodextrin aqueous solution, 5% DMSO/50% PEG400/45% water for injection or 10% Solutol/30% PEG400/60% water for injection. All animals had free access to water during the experiment, fasted overnight before administration, and resumed food supply 4 hours after administration. The entire animal experiment complied with the Institutional Animal Care and Use Committee (IACUC) animal welfare.
Sample collection and storage: After administration, approximately 0.03 mL of blood was collected from the saphenous vein of the mouse at each time point into a pre-frozen commercial EDTA-K2 tube, and placed on wet ice until centrifugation. Blood samples were centrifuged at 4° C., 3,200 g for 10 min. Plasma was collected separately, transferred to a pre-labeled 96-well plate, fast frozen on dry ice, and stored at −70±10° C. until LC-MS/MS analysis.
Pre-treatment of plasma samples: 3 μL of unknown, standard curve, QC, diluted QC and single and double blank samples were taken and placed in 1.5 mL tubes, and 60 μL of internal standard solution (internal standard: Labetalol 100 ng/mL acetonitrile solution, double blank with the same volume of pure acetonitrile) was added. The samples were vortexed for at least 15 seconds, and centrifuged at 4° C., 12,000 g for 15 min. 50 μL of the supernatant was taken and placed on a clean 96-well plate, and 200 μL of 70% acetonitrile was added. The plate was vortex at 800 rpm for 10 min, and centrifuged at 4° C., 3,220 g for 5 min. 2.0 μL of the supernatant was taken for LC-MS/MS analysis. 10-fold sample dilution procedure: 2 μL of the sample was added to 18 μL of blank matrix; 2-fold sample dilution procedure: 2 μL of the sample was added to 2 μL of blank matrix. Plasma was processed in the same manner as undiluted samples. The linear range was 4.00 to 6000 nM. Plasma concentrations would be analyzed with Triple Quad 6500 Plus, and pharmacokinetic parameters would be calculated with Phoenix WinNonlin 6.3.

[3] = tested on: MDA-MB-468 human breast cancer cells; assay: Anti-proliferative activity on MDA-MB-468 cells (CellTiter-Glo, 7 days); type: cell-based; settings: read-out: IC50 (nM), in vitro anti-proliferative activity on MDA-MB-468 tumor cells
Protocol: CellTiter-Glo (chemiluminescent cell viability detection reagent, purchased from Promega).
MDA-MB-468 cells were planted in a white 384-well plate with 40 μL of cell suspension per well, which contained 1000 MDA-MB-468 cells. The cell plate was cultured in a CO2 incubator overnight. […] 78 μL of culture medium was added to a middle plate, and then 2 μL of gradient diluted compound per well was transferred to the middle plate according to the corresponding position. After being thoroughly mixed, 10 μL per well was transferred to the cell plate. […] The cell plate was cultured in a CO2 incubator for 7 days. Another cell plate was prepared, and the signal value was read on the day of administration as the maximum value (Max value in the equation below) to participate in data analysis. 10 μL of chemiluminescent cell viability detection reagent per well was added to the cell plate, and the plate was incubated at room temperature for 10 min to stabilize the luminescent signal. A multi-label analyzer was used for reading. After the incubation of the cell plate with the compound was completed, 10 μL of chemiluminescent cell viability detection reagent per well was added to the cell plate, and the plate was incubated at room temperature for 10 min to stabilize the luminescent signal. A multi-label analyzer was used for reading.

[4] = injection administration (1 mg/kg)

Chain of PRMT5 enzyme (O14744 whole entry): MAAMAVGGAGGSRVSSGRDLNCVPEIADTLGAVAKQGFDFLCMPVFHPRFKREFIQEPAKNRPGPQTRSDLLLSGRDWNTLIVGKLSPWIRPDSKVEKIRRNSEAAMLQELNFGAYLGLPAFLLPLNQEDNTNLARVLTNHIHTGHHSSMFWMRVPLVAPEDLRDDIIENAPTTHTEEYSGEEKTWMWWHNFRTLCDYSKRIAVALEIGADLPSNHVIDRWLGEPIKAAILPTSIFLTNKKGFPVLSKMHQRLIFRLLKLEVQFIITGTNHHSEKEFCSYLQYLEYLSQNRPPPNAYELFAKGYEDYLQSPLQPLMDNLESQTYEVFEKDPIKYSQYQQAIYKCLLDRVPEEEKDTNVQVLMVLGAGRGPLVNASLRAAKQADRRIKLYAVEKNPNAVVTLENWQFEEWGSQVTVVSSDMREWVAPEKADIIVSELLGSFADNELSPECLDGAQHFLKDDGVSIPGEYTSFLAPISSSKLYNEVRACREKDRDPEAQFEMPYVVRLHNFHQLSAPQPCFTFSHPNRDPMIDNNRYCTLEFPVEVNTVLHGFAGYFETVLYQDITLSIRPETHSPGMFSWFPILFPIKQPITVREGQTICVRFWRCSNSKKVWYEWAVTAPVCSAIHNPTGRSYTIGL
Chain of PRMT5 enzyme (Q9BQA1 whole entry partner): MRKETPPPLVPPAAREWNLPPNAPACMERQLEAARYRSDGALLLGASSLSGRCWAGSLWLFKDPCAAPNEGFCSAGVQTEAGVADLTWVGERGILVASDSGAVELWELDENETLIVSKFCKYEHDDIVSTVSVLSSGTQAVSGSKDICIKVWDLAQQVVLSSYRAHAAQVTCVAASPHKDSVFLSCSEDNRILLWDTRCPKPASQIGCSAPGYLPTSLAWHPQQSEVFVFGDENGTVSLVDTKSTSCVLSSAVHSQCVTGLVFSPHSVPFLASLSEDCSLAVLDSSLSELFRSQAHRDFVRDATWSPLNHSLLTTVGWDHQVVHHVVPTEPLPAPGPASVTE

SMILES	IC50 ([1]; Homo sapiens, Z-138, 144 h)	IC50 [1]	IC50 (PRMT5 enzyme)	other results
CCOC1CC2(C1)Oc1ccc(C(=O)NC[C@H](O)CN3CCc4ccccc4C3)cc1NC2=O (stereo partly shown) [Compound 22]		12 nM		
COCCOC1CC2(C1)Oc1ccc(C(=O)NC[C@H](O)CN3CCc4ccccc4C3)cc1NC2=O (stereo partly shown) [Compound 24]		22 nM	15 nM	
O=C(NC[C@H](O)CN1CCc2ccccc2C1)c1cnc2c(c1)NC(=O)C1(CC(F)(F)C1)O2 [Compound 29]		6 nM	16 nM	Clearance rate CL [2, 4]: 37.9 mL/min/kg; Concentration integral AUC [2, 4]: 0.981 µM·h; Half-life T1/2 [2, 4]: 35.4 min; Bioavailability F ([2]; oral administration (5 mg/kg)): 8.99%; Concentration integral AUC ([2]; oral administration (5 mg/kg)): 0.441 µM·h
O=C(NC[C@H](O)CN1CCc2ccccc2C1)c1ccc2c(c1)NC(=O)[C@@]1(CCOC1)O2 [Compound 35]		22 nM	11 nM	
O=C(NC[C@H](O)CN1CCc2ccccc2C1)c1ccc2c(c1)NC(=O)[C@]1(CCOC1)O2 [Compound 36]		7 nM	7 nM	Clearance rate CL [2, 4]: 66.3 mL/min/kg; Concentration integral AUC [2, 4]: 0.576 µM·h; Half-life T1/2 [2, 4]: 13.2 min; Bioavailability F ([2]; oral administration (5 mg/kg)): 37.9%; Concentration integral AUC ([2]; oral administration (5 mg/kg)): 1.092 µM·h
O=C(NC[C@H](O)CN1CCc2ccccc2C1)c1ccc2c(c1)NC(=O)C1(CS(=O)(=O)C1)O2 [Compound 37]		8 nM	8 nM	
O=C(NC[C@H](O)CN1CCc2ccccc2C1)c1cnc2c(c1)NC(=O)C21CC1 [Compound 42]		53 nM		
COc1cc2c(cc1C(=O)NC[C@H](O)CN1CCc3ccccc3C1)NC(=O)C1(CC1)O2 [Compound 47]		66.8 nM	42 nM	
O=C(NC[C@H](O)CN1CCc2ccccc2C1)c1ccc2c(c1)NC(=O)[C@H]1C[C@@H]21 [Compound 49b]		13.1 nM	26.2 nM	IC50 [3]: 4.2 nM

Continued, in another order:

IC50 ([1]; Homo sapiens, Z-138, 144 h)	SMILES	IC50 [1]	IC50 (PRMT5 enzyme)	other results
23 nM	COCCOC1CC2(C1)Oc1ccc(C(=O)NC[C@H](O)CN3CCc4ccccc4C3)cc1NC2=O (stereo partly shown) [Compound 23]		18 nM	
22 nM	CC(C)OC1CC2(C1)Oc1ccc(C(=O)NC[C@H](O)CN3CCc4ccccc4C3)cc1NC2=O (stereo partly shown) [Compound 26]			
4 nM	O=C1CC2(C1)Oc1ccc(C(=O)NC[C@H](O)CN3CCc4ccccc4C3)cc1NC2=O [Compound 27]			
10 nM	O=C(NC[C@H](O)CN1CCc2ccccc2C1)c1ccc2c(c1)NC(=O)C1(CC(F)(F)C1)O2 [Compound 28]			
19 nM	O=C(NC[C@H](O)CN1CCc2ccccc2C1)c1cc2c(cc1F)OC1(CC1)C(=O)N2 [Compound 32]			
18 nM	O=C(NC[C@H](O)CN1CCc2ccccc2C1)c1ccc2c(c1)NC(=O)C1(CSC1)O2 [Compound 38]			
